Experimental data taken from publication PMC10368877, “Acid-sensing ion channel blocker diminazene facilitates proton-induced excitation of afferent nerves in a similar manner that Na^+/H^+ exchanger blockers do” (Frontiers in Cellular Neuroscience, 2023).

Test system: T1, acid-sensing ion channels (native ASICs of mouse DRG neurons; subunit not identified)
T1 construct: native channels in primary cultured mouse DRG neurons
Experiment: whole-cell patch clamp, ASIC currents evoked by pH drop […] to […] at -60 mV
Type: cell-based

Compound `N=C(N)c1ccc(/N=N/Nc2ccc(C(=N)N)cc2)cc1` [diminazene] has an IC50 of 16.9 ± 4.4 µM.
